Reference: PMC9203742 (Nature Communications, 2022)
Where “and” joins values, the source holds several entries; their conditions need not be identical. Identical values can stand only once.

Columns and labels:
mGlu1 A59H/A265H mutant [1] = target: T1, mGlu1 A59H/A265H mutant (Rattus norvegicus, UniProt P23385, A265H/A59H); test: Fura-2 Ca2+ imaging in HEK293 cells expressing mGlu1 A59H/A265H; format: cell-based; conditions: single-cell values
T1 construct: expressed in transfected cells; host or cells: HEK293
T1 sequence (P23385 19-1199 A59H/A265H): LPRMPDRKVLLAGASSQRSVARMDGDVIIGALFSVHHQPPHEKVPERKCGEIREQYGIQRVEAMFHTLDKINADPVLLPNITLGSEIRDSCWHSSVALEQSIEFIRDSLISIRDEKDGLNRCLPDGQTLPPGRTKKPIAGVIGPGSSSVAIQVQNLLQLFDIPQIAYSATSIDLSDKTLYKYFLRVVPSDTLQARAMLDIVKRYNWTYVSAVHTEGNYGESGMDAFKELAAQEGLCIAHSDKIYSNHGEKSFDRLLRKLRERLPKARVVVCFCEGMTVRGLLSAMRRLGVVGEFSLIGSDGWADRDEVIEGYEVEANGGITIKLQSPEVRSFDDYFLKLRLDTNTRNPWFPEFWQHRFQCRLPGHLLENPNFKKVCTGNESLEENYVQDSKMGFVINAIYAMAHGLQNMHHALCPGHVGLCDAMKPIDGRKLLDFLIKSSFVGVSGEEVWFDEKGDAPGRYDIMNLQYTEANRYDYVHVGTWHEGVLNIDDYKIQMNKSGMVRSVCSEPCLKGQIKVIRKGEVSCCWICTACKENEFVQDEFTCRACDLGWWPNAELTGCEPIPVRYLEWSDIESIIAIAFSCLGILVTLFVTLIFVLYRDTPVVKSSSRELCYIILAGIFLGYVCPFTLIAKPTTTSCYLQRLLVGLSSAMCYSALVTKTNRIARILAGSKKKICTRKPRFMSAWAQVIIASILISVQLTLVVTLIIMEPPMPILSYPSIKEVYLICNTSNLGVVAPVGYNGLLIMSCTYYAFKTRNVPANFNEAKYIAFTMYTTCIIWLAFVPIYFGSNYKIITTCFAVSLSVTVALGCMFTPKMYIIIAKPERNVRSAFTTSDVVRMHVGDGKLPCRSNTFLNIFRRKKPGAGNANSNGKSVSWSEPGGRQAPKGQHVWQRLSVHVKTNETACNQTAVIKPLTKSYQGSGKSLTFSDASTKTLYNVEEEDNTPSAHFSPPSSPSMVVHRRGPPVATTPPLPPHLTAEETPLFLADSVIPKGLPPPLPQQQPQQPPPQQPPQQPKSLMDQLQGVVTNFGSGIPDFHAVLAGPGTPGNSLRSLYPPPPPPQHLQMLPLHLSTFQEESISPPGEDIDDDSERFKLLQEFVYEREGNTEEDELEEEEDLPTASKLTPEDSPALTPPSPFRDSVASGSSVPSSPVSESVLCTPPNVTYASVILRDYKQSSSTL

[2] = system: mGlu1 construct not given; test: Fura-2 Ca2+ imaging in HEK293 cells, source data Suppl Fig1, middle group (c9-c17); construct not given; format: cell-based, rat; conditions: single-cell values, cells #15-#20; middle group of third block
Source text: (§1) Supplement 41467_2022_30828_MOESM6_ESM.zip/Ojima et al_source data_Suppl Fig.xlsx, sheet "Suppl Fig1" | column: Glu; NiCl2; CuCl2; ZnCl2; CdCl2; Na2PdCl2; Pd(bpy)

mGlu1 A59H/A265H mutant [3] = target: T1, mGlu1 A59H/A265H mutant; test: Fura-2 Ca2+ imaging in HEK293 cells expressing mGlu1 A59H/A265H; format: cell-based; conditions: Fig.1e
[4] = system: HEK293 cells, vector control; test: Fura-2 Ca2+ imaging in HEK293 cells transfected with control vector (Vec); format: cell-based; conditions: Fig.1e; for Ca2+ response of individual cells (source data Suppl Fig1), Vec: test concentration or dose not given here
Source text: Supplement 41467_2022_30828_MOESM6_ESM.zip/Ojima et al_source data_Main Figure.xlsx, sheet "Fig.1e" | column: Vec

mGlu1 P57H/N264H mutant = target: T2, mGlu1 P57H/N264H mutant (Rattus norvegicus, UniProt P23385, N264H/P57H); test: Fura-2 Ca2+ imaging in HEK293 cells expressing mGlu1 P57H/N264H; format: cell-based
T2 construct: expressed in transfected cells; host or cells: HEK293
T2 sequence (P23385 19-1199 P57H/N264H): as the sequence (P23385 19-1199 A59H/A265H) above, with P39H, H41A, N246H, H247A counted along it

mGlu1 E60H/N264H mutant = target: T3, mGlu1 E60H/N264H mutant (Rattus norvegicus, UniProt P23385, E60H/N264H); test: Fura-2 Ca2+ imaging in HEK293 cells expressing mGlu1 E60H/N264H; format: cell-based
T3 construct: expressed in transfected cells; host or cells: HEK293
T3 sequence (P23385 19-1199 E60H/N264H): as the sequence (P23385 19-1199 A59H/A265H) above, with H41A, E42H, N246H, H247A counted along it

mGlu1 A59H/G266H mutant [5] = target: T4, mGlu1 A59H/G266H mutant (Rattus norvegicus, UniProt P23385, A59H/G266H); test: Fura-2 Ca2+ imaging in HEK293 cells expressing mGlu1 A59H/G266H; format: cell-based; conditions: Fig.1e; for Ca2+ response (delta ratio), A59H/G266H: test concentration or dose not given here
T4 construct: expressed in transfected cells; host or cells: HEK293
T4 sequence (P23385 19-1199 A59H/G266H): as the sequence (P23385 19-1199 A59H/A265H) above, with H247A, G248H counted along it

mGlu1 K61H/N264H mutant = target: T5, mGlu1 K61H/N264H mutant (Rattus norvegicus, UniProt P23385, K61H/N264H); test: Fura-2 Ca2+ imaging in HEK293 cells expressing mGlu1 K61H/N264H; format: cell-based
T5 construct: expressed in transfected cells; host or cells: HEK293
T5 sequence (P23385 19-1199 K61H/N264H): as the sequence (P23385 19-1199 A59H/A265H) above, with H41A, K43H, N246H, H247A counted along it

mGlu1 P58H/N264H mutant = target: T6, mGlu1 P58H/N264H mutant (Rattus norvegicus, UniProt P23385, N264H/P58H); test: Fura-2 Ca2+ imaging in HEK293 cells expressing mGlu1 P58H/N264H; format: cell-based
T6 construct: expressed in transfected cells; host or cells: HEK293
T6 sequence (P23385 19-1199 P58H/N264H): as the sequence (P23385 19-1199 A59H/A265H) above, with P40H, H41A, N246H, H247A counted along it

mGlu1 A59H/N264H mutant = target: T7, mGlu1 A59H/N264H mutant (Rattus norvegicus, UniProt P23385, A59H/N264H); test: Fura-2 Ca2+ imaging in HEK293 cells expressing mGlu1 A59H/N264H; format: cell-based
T7 construct: expressed in transfected cells; host or cells: HEK293
T7 sequence (P23385 19-1199 A59H/N264H): as the sequence (P23385 19-1199 A59H/A265H) above, with N246H, H247A counted along it

WT mGlu1 = target: T8, WT mGlu1 (Rattus norvegicus, UniProt P23385); format: cell-based; note: test concentration or dose not given here
T8 construct: expressed in transfected cells; host or cells: HEK293
T8 sequence (P23385 19-1199): as the sequence (P23385 19-1199 A59H/A265H) above, with H41A, H247A counted along it

[6] = system: mGlu1 construct not given; test: Fura-2 Ca2+ imaging in HEK293 cells, source data Suppl Fig1, right group (c18-c26); construct not given; format: cell-based, rat; conditions: single-cell values, cells #15-#20; right group of third block
Source text: as §1

mGlu1 A59H/G266H mutant [7] = target: T4, mGlu1 A59H/G266H mutant; test: Fura-2 Ca2+ imaging in HEK293 cells expressing mGlu1 A59H/G266H; format: cell-based; conditions: single-cell values
[8] = system: HEK293 cells, vector control; test: Fura-2 Ca2+ imaging in HEK293 cells transfected with control vector (Vec); format: cell-based; conditions: single-cell values #1-#20; for Ca2+ response of individual cells (source data Suppl Fig1), Vec: test concentration or dose not given here
[9] = system: mGlu1 construct not given; test: Fura-2 Ca2+ imaging in HEK293 cells, source data Suppl Fig1, left group (c0-c8); construct not given; format: cell-based, rat; conditions: single-cell values, cells #15-#20; left group of third block
Source text: as §1

Structure (SMILES): [Cl][Cd][Cl] [CdCl2]
- Ca2+ response of individual cells (source data Suppl Fig1), A59H/A265H (mGlu1 A59H/A265H mutant [1]): 0.002869 and 0.004277 and -0.0003846 and 0.01228 and 0.01648 and -0.01175 and -0.03786 and 0.01586 and 0.002777 and 0.3308 and 0.2114 and -0.005654 and -0.02447 and 0.0205
- Ca2+ response of individual cells (source data, sheet Suppl Fig1) [2]: 0.01055 and 0.01355 and -0.009131 and -0.01706 and 0.009777 and -0.01645
- Ca2+ response (delta ratio), A59H/A265H (mGlu1 A59H/A265H mutant [3]): 0.02642
- Ca2+ response (delta ratio), Vec [4]: -0.03216
- Ca2+ response (delta ratio), P57H/N264H (mGlu1 P57H/N264H mutant; Fig.1e): 0.03091
- Ca2+ response of individual cells (source data Suppl Fig1), P57H/N264H (mGlu1 P57H/N264H mutant; single-cell values #1-#20, P57H/N264H): -0.01735 and -0.005323 and -0.01104 and -0.01126 and -0.0097 and -0.003008 and -0.01663 and -0.0067 and -0.01865 and 0.6823 and 0.01155 and -0.0096 and 0.03494 and -0.09688 and -0.01634 and 0.024 and 0.009592 and -0.004469 and 0.09844 and -0.01566
- Ca2+ response (delta ratio), E60H/N264H (mGlu1 E60H/N264H mutant; Fig.1e): -0.01186
- Ca2+ response of individual cells (source data Suppl Fig1), E60H/N264H (mGlu1 E60H/N264H mutant; single-cell values #1-#20, E60H/N264H): -0.009869 and -0.0139 and -0.008638 and -0.01472 and -0.009062 and -0.006669 and -0.004677 and -0.01493 and -0.004954 and 0.001138 and -0.005708 and -0.002215 and 0.01407 and 0.02235 and -0.01174 and -0.009823 and -0.008654 and -0.007631 and -0.02142 and -0.1201
- Ca2+ response (delta ratio), A59H/G266H (mGlu1 A59H/G266H mutant [5]): 0.001928
- Ca2+ response (delta ratio), K61H/N264H (mGlu1 K61H/N264H mutant; Fig.1e): 0.01695
- Ca2+ response of individual cells (source data Suppl Fig1), K61H/N264H (mGlu1 K61H/N264H mutant; single-cell values, K61H/N264H): 0.003946 and -0.03622 and -0.01614 and -0.01244 and -0.01964 and -0.05083 and -0.008715 and -0.008331 and -0.02813 and 0.002531 and -0.03307 and -0.01172 and 0.5817 and -0.01188
- Ca2+ response (delta ratio), P58H/N264H (mGlu1 P58H/N264H mutant; Fig.1e): -0.005715
- Ca2+ response of individual cells (source data Suppl Fig1), P58H/N264H (mGlu1 P58H/N264H mutant; single-cell values #1-#20, P58H/N264H): 0.0003 and -0.006238 and 0.002354 and -0.001808 and -0.01828 and -0.02019 and -0.005077 and -0.009385 and -0.005592 and -0.02068 and -0.009223 and 0.09017 and -0.003262 and -0.06371 and -0.003885 and -0.002246 and -0.002192 and 0.0005231 and -0.03079
- Ca2+ response (delta ratio), A59H/N264H (mGlu1 A59H/N264H mutant; Fig.1e): 0.02484
- Ca2+ response of individual cells (source data Suppl Fig1), A59H/N264H (mGlu1 A59H/N264H mutant; single-cell values #1-#20, A59H/N264H): 0.2588 and -0.01875 and -0.0009538 and 0.004669 and -0.003354 and -0.0081 and -0.03695 and -0.009438 and -0.004808 and -0.01072 and -0.01152 and -0.03409 and 0.4867 and -0.01683 and -0.02968 and -0.006508 and -0.0288 and -0.01271 and -0.01325 and -0.006908
- Ca2+ response (delta ratio), WT (WT mGlu1; Fig.1e): 0.005362
- Ca2+ response of individual cells (source data Suppl Fig1), WT (WT mGlu1; single-cell values #1-#20, WT): 0.0129 and 0.04075 and 0.009069 and 0.006385 and -0.009131 and -0.006215 and 0.2594 and 0.005608 and -0.007808 and -0.007346 and 0.0007769 and -0.1317 and -0.001 and -0.06408 and -0.004269 and 0.01558 and -0.01997 and 0.01184 and 0.001662 and -0.005277
- Ca2+ response of individual cells (source data, sheet Suppl Fig1) [6]: 0.03353 and 0.009331 and 0.006908 and 0.01689 and -0.009408 and 0.005315
- Ca2+ response of individual cells (source data Suppl Fig1), A59H/G266H (mGlu1 A59H/G266H mutant [7]): -0.01723 and 0.01558 and 0.01066 and 0.005608 and 0.01182 and 0.0279 and -0.1123 and -0.0058 and -0.01721 and 0.02262 and 0.01814 and -0.006169 and -0.01936 and 0.04175
- Ca2+ response of individual cells (source data Suppl Fig1), Vec [8]: -0.01042 and -0.01834 and -0.01502 and -0.05052 and -0.04072 and -0.03065 and -0.02875 and -0.03001 and -0.006638 and -0.04038 and -0.04515 and -0.04559 and -0.05998 and -0.01618 and -0.0239 and -0.03979 and -0.02847 and -0.03687 and -0.04005 and -0.03582
- Ca2+ response of individual cells (source data, sheet Suppl Fig1) [9]: -0.005954 and 0.01795 and 0.005315 and -0.02397 and -0.001754 and -0.003654
